# According to US5962314A, “Calcium receptor-active molecules” (priority 1997, dated 1999):
# “Also recorded” adds a separate entry of the source. No end group written: not given here.
# Tests used:
# [1] = biological target: T1, parathyroid cell calcium receptor (Bos taurus, UniProt P35384); experiment: block of extracellular Ca2+-induced increases in [Ca2+]i in bovine parathyroid cells; format: cell-based
# T1 sequence (P35384 20-1085): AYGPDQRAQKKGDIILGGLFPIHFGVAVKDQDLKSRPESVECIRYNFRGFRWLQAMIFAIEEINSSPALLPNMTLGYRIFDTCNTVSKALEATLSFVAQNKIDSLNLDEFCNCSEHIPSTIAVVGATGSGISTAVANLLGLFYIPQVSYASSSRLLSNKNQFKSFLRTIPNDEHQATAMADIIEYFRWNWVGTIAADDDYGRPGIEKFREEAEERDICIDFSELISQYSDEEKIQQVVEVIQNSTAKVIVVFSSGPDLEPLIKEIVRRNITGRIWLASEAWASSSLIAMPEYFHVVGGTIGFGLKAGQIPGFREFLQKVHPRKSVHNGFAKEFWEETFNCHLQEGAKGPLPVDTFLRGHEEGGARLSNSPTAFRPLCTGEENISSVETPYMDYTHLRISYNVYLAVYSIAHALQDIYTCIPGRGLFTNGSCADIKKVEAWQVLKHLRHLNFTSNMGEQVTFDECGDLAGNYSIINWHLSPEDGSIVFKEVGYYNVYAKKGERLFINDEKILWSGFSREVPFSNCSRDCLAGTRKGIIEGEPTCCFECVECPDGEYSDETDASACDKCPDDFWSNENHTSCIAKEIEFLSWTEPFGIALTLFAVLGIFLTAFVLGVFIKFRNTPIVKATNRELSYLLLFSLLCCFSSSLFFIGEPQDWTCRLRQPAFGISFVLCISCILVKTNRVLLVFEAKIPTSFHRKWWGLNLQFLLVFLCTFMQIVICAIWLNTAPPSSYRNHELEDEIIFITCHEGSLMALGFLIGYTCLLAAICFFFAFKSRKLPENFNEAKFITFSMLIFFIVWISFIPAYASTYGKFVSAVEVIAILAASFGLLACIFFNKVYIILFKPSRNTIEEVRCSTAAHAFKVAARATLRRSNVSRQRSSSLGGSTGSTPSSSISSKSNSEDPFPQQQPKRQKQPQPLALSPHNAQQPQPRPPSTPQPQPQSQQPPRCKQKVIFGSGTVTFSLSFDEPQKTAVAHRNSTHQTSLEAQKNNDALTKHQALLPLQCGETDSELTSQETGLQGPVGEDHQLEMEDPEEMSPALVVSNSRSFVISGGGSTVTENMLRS
# [2] = biological target: T1, parathyroid cell calcium receptor; experiment: Cl- current in Xenopus oocytes injected with bovine parathyroid cell mRNA; format: cell-based; set-up: Whole pieces of gland were used to prepare mRNA that directs the expression of the calcium receptor in Xenopus oocytes; expressed in transfected cells; host or cells: Xenopus laevis oocytes injected with parathyroid poly(A)+ mRNA; conditions: oocytes expressing parathyroid calcium receptor, fendiline 100 μM
# Method: (§1) Following incubation, an oocyte was placed into a 100-μl plastic chamber and superfused with MBS at a flow rate of 0.5 ml/min using a peristaltic pump. Test molecules or inorganic polycations were added by rapidly moving the tubing into different buffers. Recording and current-passing electrodes were constructed from thin-wall capillary tubing pulled to a resistance of 1-3 Mohms and filled with 3 M KCl. […] Currents were recorded directly onto a strip chart recorder.
# [3] = tested on: serum albumin or phosphate; experiment: serum albumin and phosphate in rats; format: in vivo, rat; conditions: i.p.
# Method: (§2) Compounds shown to activate the bovine parathyroid cell calcium receptor in vitro were tested for hypocalcemic activity in vivo. Male Sprague-Dawley rats (200 g) were maintained on a low calcium diet for one week prior to receiving test substance or vehicle as control. Blood was collected from the tail vein three hours after the intra-peritoneal administration of NPS 467. […] Serum total calcium, albumin and phosphate were measured by techniques well known in the art.
# [4] = tested on: serum ionized calcium; experiment: serum ionized Ca2+ in rats; format: in vivo, rat; conditions: NPS 467 i.p., low calcium diet
# Method: as §2
# Rats (male, Sprague-Dawley, 250-300 g) were fed standard rat chow and fasted overnight prior to the experiment. NPS R-467 was suspended in corn oil and administered as a single oral dose through a gavage needle. Three hours later a sample of blood was taken from the tail vein and assessed for ionized Ca^2+ levels.
# [5] = tested on: PTH; experiment: PTH levels in rats; format: in vivo, rat; conditions: NPS 467, preliminary studies
# Source text: The fall in blood Ca^2+ at this time was paralleled by a proportional fall in the levels of blood total calcium.
# [6] = tested on: parathyroid calcium receptors; experiment: response of calcium receptor-transfected HEK293, CHO and JEG-3 cells; format: cell-based
# Method: Functional calcium receptor expression was assessed by loading cells with fura-2 and measuring changes in intracellular calcium levels after addition of calcium receptor agonists. Control constructs were prepared by cloning the substance K receptor and the M1 muscarinic receptor cDNAs into similar commercial vectors as described above. Control constructs were transfected into the various cell lines described above, and the response of the cells containing the control constructs to substance K or to carbachol, respectively, was measured. […] Neither control responded to increases in extracellular calcium.
# [7] = biological target: T1, parathyroid cell calcium receptor; experiment: cell-based; format: cell-based
# Method: For example,. bovine parathyroid cells loaded with fura-2 are initially suspended in buffer containing 0.5 mM CaCl2. A test substance is added to the cuvette in a small volume (5-15 μl) and changes in the fluorescence signal are measured. Cumulative increases in the concentration of the test substance are made in the cuvette until some predetermined concentration is achieved or no further changes in fluorescence are noted.
# Human parathyroid glands, were obtained from patients undergoing surgical removal of parathyroid tissue for primary or uremic hyperparathyroidism (uremic HPT), and were treated similarly to bovine tissue.
# The cells were then pelleted, resuspended in the same buffer, but lacking the ester, and incubated a further 15 minutes at 37° C. The cells were subsequently washed twice with PCB containing 0.5 mM CaCl2 and 0.5% BSA and maintained at room temperature (about 20° C.). Immediately before use, the cells were diluted five-fold with prewarmed 0.5 mM CaCl2 -PCB to obtain a final BSA concentration of 0.1%. The concentration of cells in the cuvette used for fluorescence recording was 1-2×10^6 /ml.
# The fluorescence of indicator-loaded cells was measured at 37° C. in a spectrofluorimeter (Biomedical Instrumentation Group, University of Pennsylvania, Philadelphia, Pa.) equipped with a thermostated cuvette holder and magnetic stirrer using excitation and emission wavelengths of 340 and 510 nm, respectively. […] Leakage of dye is dependent on temperature and most occurs within the first 2 minutes after warming the cells in the cuvette. Dye leakage increases only very slowly thereafter. To correct the calibration for dye leakage, cells were placed in the cuvette and stirred at 37° C. for 2-3 minutes. The cell suspension was then removed, the cells pelleted, and the supernatant returned to a clean cuvette. […] This estimate was subtracted from the apparent Fmin.
# [8] = biological target: T2, calcium receptor (Homo sapiens, UniProt P41180); experiment: Xenopus oocytes injected with human parathyroid cell mRNA; format: cell-based; conditions: hexacyclen 135 μM; neomycin 100 μM; NPS 382 5 mM
# T2 sequence (P41180 20-1078): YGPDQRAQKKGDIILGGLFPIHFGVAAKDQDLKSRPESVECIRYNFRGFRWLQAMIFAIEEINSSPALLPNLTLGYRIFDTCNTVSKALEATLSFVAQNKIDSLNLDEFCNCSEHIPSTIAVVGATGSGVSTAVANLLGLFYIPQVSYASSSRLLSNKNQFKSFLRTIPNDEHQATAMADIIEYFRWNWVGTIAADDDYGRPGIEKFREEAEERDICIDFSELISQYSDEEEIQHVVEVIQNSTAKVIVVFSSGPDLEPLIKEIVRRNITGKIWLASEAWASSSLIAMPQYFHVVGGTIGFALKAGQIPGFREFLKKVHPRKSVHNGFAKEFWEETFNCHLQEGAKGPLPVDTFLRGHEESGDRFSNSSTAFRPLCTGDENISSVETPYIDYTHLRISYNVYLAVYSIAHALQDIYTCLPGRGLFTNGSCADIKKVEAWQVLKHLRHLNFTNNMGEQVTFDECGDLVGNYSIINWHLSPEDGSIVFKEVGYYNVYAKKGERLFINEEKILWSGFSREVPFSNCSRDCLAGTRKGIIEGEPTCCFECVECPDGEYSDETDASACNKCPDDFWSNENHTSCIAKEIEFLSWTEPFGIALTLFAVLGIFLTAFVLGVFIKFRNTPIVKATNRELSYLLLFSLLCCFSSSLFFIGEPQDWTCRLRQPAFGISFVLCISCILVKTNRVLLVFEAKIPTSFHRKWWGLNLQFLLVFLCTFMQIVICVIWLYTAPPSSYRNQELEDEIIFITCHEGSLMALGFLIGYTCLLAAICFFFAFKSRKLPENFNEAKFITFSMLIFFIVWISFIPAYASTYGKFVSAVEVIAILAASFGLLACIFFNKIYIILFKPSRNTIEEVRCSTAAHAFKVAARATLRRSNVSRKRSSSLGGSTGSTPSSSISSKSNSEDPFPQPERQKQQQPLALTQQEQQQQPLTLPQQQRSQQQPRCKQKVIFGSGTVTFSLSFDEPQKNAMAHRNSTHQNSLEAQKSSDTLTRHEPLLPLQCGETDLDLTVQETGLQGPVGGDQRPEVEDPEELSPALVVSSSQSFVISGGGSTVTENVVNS
# Method: Oocytes were injected with poly(A)^+ -enriched mRNA from human parathyroid tissue (hyperplastic glands from a case of secondary HPT).
# as §1
# Using this screen allows one to test for an action directly on the calcium receptor. Oocytes expressing the calcium receptor also responded to several molecules active on intact parathyroid cells when screened as follows. […] This offers rather compelling evidence showing that these molecules act on the calcium receptor or on some other protein intimately associated with its function.
# [9] = tested on: osteoclast calcium receptor; experiment: [Ca2+]i in indo-1-loaded rat osteoclasts; format: cell-based
# [10] = tested on: cyclic AMP; format: cell-based, bovine
# Method: Cells were incubated as above for PTH secretion studies and at the end of the incubation, a 0.15-ml sample was taken and transferred to 0.85 ml of hot (70° C.) water and heated at this temperature for 5-10 minutes. The tubes were subsequently frozen and thawed several times and the cellular debris sedimented by centrifugation. Portions of the supernatant were acetylated and cyclic AMP concentrations determined by radioimmunoassay.
# Each value is the mean±SEM of three experiments.
# [11] = tested on: inositol phosphates; experiment: inositol phosphate formation in parathyroid cells; format: cell-based, bovine; conditions: 30 seconds
# Method: After 30 seconds, the reaction was terminated by the addition of CHCl3 :MeOH:HCl and IP1 (circles) and IP3 (triangles) separated by anion exchange chromatography. Each point is the mean of 2 experiments, each performed in triplicate.
# This section describes procedures measuring inositol phosphate formation. Membrane phospholipids were labeled by incubating parathyroid cells with 4 μCi/ml ^3 H-myo-inositol for 20-24 hours. Cells were then washed and resuspended in PCB containing 0.5 mM CaCl2 and 0.1% BSA. Incubations were performed in microfuge tubes in the absence or presence of various concentrations of organic polycation for different times. Reactions were terminated by the addition of 1 ml chloroform-methanol-12 N HCl (200:100:1; v/v/v). Aqueous phytic acid hydrolysate (200 μl; 25 μg phosphate/tube). The tubes were centrifuged and 600 μl of the aqueous phase was diluted into 10 ml water.
# Inositol phosphates were separated by ion-exchange chromatography using AG1-X8 in either the chloride- or formate-form. When only IP3 levels were to be determined, the chloride-form was used, whereas the formate form was used to resolve the major inositol phosphates (IP3, IP2, and IP1). […] The last eluate was diluted and counted. […] The eluted samples from the formate columns were rotary evaporated, the residues brought up in cocktail, and counted.
# [12] = tested on: bovine parathyroid cells; experiment: PTH secretion from bovine parathyroid cells; format: cell-based
# Method: PTH secretion was measured by first suspending cells in PCB containing 0.5 mM CaCl2 and 0.1% BSA.
molecule,measurement,setting,value
NCCCCCCCCCCCCNC(=O)Cc1ccc(O)cc1O [NPS 021],effect on extracellular Ca2+-elicited increase in [Ca2+]i,[1]; 200 μM,inhibited the increase in [Ca^2+ ]i
same,effect on basal [Ca2+]i,[1]; 0.5 mM CaCl2,caused no change in [Ca^2+ ]i; also recorded: does not by itself cause any change in [Ca^2+ ]i
same,effect on extracellular Ca2+-evoked increase in [Ca2+]i,[1]; around 500 μM,abolished
CC(NCCC(c1ccccc1)c1ccccc1)c1ccccc1 (racemic) [Fendiline],effect on Cl- current / intracellular Ca2+,[2],evokes the mobilization of intracellular Ca^2+
same,effect on Cl- current / intracellular Ca2+,[2]; listed as fendiline,evokes oscillatory increases in Cl^-; also recorded: elicits oscillatory increases in Cl^-
COc1cccc(C(C)NCCCc2ccccc2)c1 (racemic) [NPS 467],effect on serum albumin or phosphate,[3],no change in serum albumin or phosphate levels
same,effect on serum or whole blood Ca2+,[4],maximal within three hours
same,effect on serum or whole blood Ca2+,[4]; listed as NPS-467,dose-dependent reduction in serum or whole blood Ca^2+
same,effect on circulating PTH,[5],dose-dependent reduction in circulating levels of PTH
"substance K: ligand of substance K receptor (HKTDSFVGLM; ends and bridges not checked; UniProt P20366 98-107, looked up)",response of calcium receptor-transfected cells,[6],did not respond
"NCCCN(CCCN)CCCNCCCCNCCCN(CCCN)CCCN [NPS 382, N^1,N^1,N^5,N^14,N^14-tetrakis-(3-aminopropyl)spermine]",effect on [Ca2+]i,[7],mobilize intracellular Ca^2+
same,"relative potency, in words",[7]; parathyroid cells,about twice as potent as NPS 381
same,mobilization of intracellular Ca2+ in oocytes,[8],also effective
C[N+](C)(C)CCOC(N)=O [carbachol],response of calcium receptor-transfected cells,[6],did not respond
NCCCCNCCCN [Spermidine],effect on [Ca2+]i,[7],mobilize intracellular Ca^2+
same,effect on [Ca2+]i in osteoclasts,[9],none of these caused any large increase in [Ca^2+ ]i
protamine,effect on [Ca2+]i,[7],evoked rapid and transient increases in [Ca^2+ ]i
same,effect on intracellular Ca2+,"[7]; neomycin B 30 μM, protamine 1 μg/ml",mobilization of intracellular Ca^2+
same,effect on isoproterenol-induced increases in cyclic AMP,[10],depressed isoproterenol-induced increases in cyclic AMP
same,effect on inositol phosphate formation,[11],increases the formation of inositol phosphates; also recorded: rapid (within 30 seconds) increase in the formation of IP3
same,effect on PTH secretion,[12]; bovine parathyroid cells,inhibit PTH secretion; also recorded: inhibited PTH secretion to the same extent as extracellular Ca^2+
"CCCCCCCCCCCCCC(=O)O[C@@H]1[C@@H](C)[C@@]2(O)[C@@H](C=C(CO)C[C@]3(O)C(=O)C(C)=C[C@@H]23)[C@@H]2C(C)(C)[C@]12OC(C)=O [PMA, phorbol myristate acetate]",effect on concentration-response curves for increases in [Ca2+]i,[7]; 100 nM,shift to the right in the concentration-response curve; also recorded: shifts to the right the concentration-response curves
same,effect on inositol phosphate formation,[11],depresses the formation of IP1
same,effect on concentration-response curves for inhibition of PTH secretion,"[12]; 100 nM, 30 minutes",shifts to the right the concentration-response curves
CC(Cc1ccccc1)NCCC(c1ccccc1)c1ccccc1 (stereo not drawn) [Prenylamine],effect on [Ca2+]i in osteoclasts,[9],mobilization of [Ca^2+ ]i
"C1CNCCNCCNCCNCCNCCN1 [Hexacyclen, 1,4,7,10,13,16-hexaaza-cyclooctadecane]",potency increase relative to pentaethylenehexamine,[7]; ring structure vs straight chain,25 fold
same,mobilization of intracellular Ca2+ in oocytes,[8],caused the mobilization of intracellular Ca^2+
